Common to all, as to format: binding, human
One assay deals with CXCR4 D97T. As to the kind of experiment: 12G5 antibody competition, 293T cells transfected with CXCR4 D97T. Conditions: IC50 on CXCR4 D97T relative to wt. The protocol: (§1) Fig. 4 The interactions of EPI-X4 and the EPI-X4 derivatives WSC02 and JM#21 with point-mutated CXCR4 were assessed by an antibody competition assay. Amino acid substitutions were introduced in the sequence of CXCR4 by site-directed mutagenesis, cloned into an IRES-eGFP expression vector, and transfected into 293 T cells. Afterward, cells were incubated with serially diluted EPI-X4 (a, b), WSC02 (c, d), or JM#21 (e, f) in presence of a constant concentration of CXCR4 specific antibody (clone 12G5). After 2 h, bound antibody was analyzed by flow cytometry. a, c, e) Representative dose-dependent replacement of 12G5 antibody by peptides. b, d, f) IC50 values were calculated by nonlinear regression. Shown are data derived from at least three individual experiments ± SEM. IC50 values were set to 1000 µM (EPI-X4 and WSC02) or 100 µM (JM#21) if the value exceeds the maximally used concentration. *p ≤ 0.05, ***p ≤ 0.001 (one-way ANOVA for comparison with wt). For IC50 values see Table 1. For all binding curves see also Fig. S8.
(§2) Mutated CXCR4 constructs were transfected into 293 T cells that have a very low endogenous expression level of wild-type CXCR4. Transfected cells were then analyzed for CXCR4 surface expression (Fig. S5a) and EPI-X4 binding using a flow cytometry-based antibody competition assay (Fig. S5b, c)[33]. […]

Another assay concerns CXCR4 E277A. As to the kind of experiment: 12G5 antibody competition, 293T cells transfected with CXCR4 E277A. The settings on record: IC50 on CXCR4 E277A relative to wt. The protocol: as §1, §2
Another assay concerns CXCR4 D97S. Briefly: 12G5 antibody competition, 293T cells transfected with CXCR4 D97S. The settings on record: IC50 on CXCR4 D97S relative to wt. The protocol:
as §1, §2

Assay [1] concerns CXCR4 D97E + V112A + L41A. Briefly: 12G5 antibody competition, 293T cells transfected with CXCR4 D97E + V112A + L41A. Conditions: IC50 on CXCR4 D97E + V112A + L41A relative to wt. Here is the method: as §1, §2
The subject of the next assay is CXCR4 D97E. As to the kind of experiment: 12G5 antibody competition, 293T cells transfected with CXCR4 D97E. The settings on record: IC50 on CXCR4 D97E relative to wt. Here is the method: as §1, §2
The subject of another assay is CXCR4 V112A + L41A. As to the kind of experiment: 12G5 antibody competition, 293T cells transfected with CXCR4 V112A + L41A. Conditions: IC50 on CXCR4 V112A + L41A relative to wt. Here is the method: as §1, §2

Consider “IVRWSKKVPCVS [WSC02, first-generation C-terminally truncated 12-mer derivative of EPI-X4 with four substitutions]”, for which the Fold change amounted to 31 with CXCR4 D97T; 0.7 with CXCR4 E277A; 18 in the assay on CXCR4 D97S; 5 in assay [1]; 8 in the assay with CXCR4 D97E; 4 in the assay with CXCR4 V112A + L41A.
